Test results published in patent publication US9163049B2, “Medicament comprising a reducing alkyl-sugar monomer for the treatment of inflammatory disorders” (PIERRE FABRE DERMO-COSMETIQUE, priority 2003, dated 2015).

Key:
HAPEC = assay: Adhesion of lymphocytes on non-activated endothelial cells HAPEC; assay type: cell-based
Description: (§1) Adhesion is carried out in vitro under static conditions. The endothelial cells were cultured in wells in order to obtain a monolayer. The cells were pretreated for 5 hours in the presence or absence of alkyl-rhamnosides. As dodecyl-rhamnoside required a content of 0.1% by volume to be soluble in the culture media, a control containing 0.1% glycerol was also analyzed.
(§2) The suspension of labeled lymphocytes was at a concentration making it possible to obtain a ratio of 5 lymphocytes per endothelial cell. Adhesion was carried out for 30 minutes at ambient temperature. The label binds irreversibly to the lipids of the plasma membrane of the cells without affecting the biological properties of the membrane or cellular viability.
(§3) The adhesion of the lymphocytes on the endothelial cells was quantified by flow cytometry.

[1] = system: HSkMEC activated with TNF-α; assay: Adhesion between lymphocytes and TNF-α activated endothelial cells (HSkMEC); assay type: cell-based; conditions: for Control/TNF ratio / adhesion between lymphocytes and endothelial cells, TNF: HSkMEC; for adhesion between lymphocytes and endothelial cells, TNF: control in medium = 1.000
Description: (§4) The influence of alkyl-rhamnosides on adhesion between lymphocytes and […] endothelial cells, in particular the line of endothelial cells arising from the skin (HSkMEC), was evaluated. These cells were placed in the presence of a strong activator, TNF-α.
as §1, §2, §3
The results of adhesion between lymphocytes and activated endothelial cells, summarized in Table 5 below, arise from groups of three adhesion tests.

HPLNEC.B3 = assay: Adhesion of lymphocytes on non-activated endothelial cells HPLNEC.B3; assay type: cell-based
Description: as §1, §2, §3

HMLNEC = assay: Adhesion of lymphocytes on non-activated endothelial cells HMLNEC; assay type: cell-based
Description: as §1, §2, §3

HBrMEC = assay: Adhesion of lymphocytes on non-activated endothelial cells HBrMEC; assay type: cell-based
Description: as §1, §2, §3

HSkMEC = assay: Adhesion of lymphocytes on non-activated endothelial cells HSkMEC; assay type: cell-based; conditions: for adhesion between lymphocytes and endothelial cells, Medium: HSkMEC, Medium (no TNF), control = 1.000
Description: as §4, §1, §2, §3

reconstituted epidermis = assay: Cutaneous irritant potential on reconstituted epidermis; assay type: cell-based; conditions: Rh-C5 concentration 30%, Triton 4%
Text: The evaluation of cutaneous irritant potential on reconstituted epidermis is an alternative to animal experimentation. The principle is based on the evaluation of the irritant potential of the product tested by: • the study of cytotoxicity by quantification of the release of lactate dehydrogenase (LDH) and by reduction of MTT to […], • the study of inflammation markers by quantification of the release of interleukins and IL8.

[2] = system: PGE2 released by the NHK stimulated by PMA; assay: Assay of the PGE2 released by the NHK stimulated by PMA; assay type: cell-based, human; conditions: for Percentage of inhibition of the release of PGE2: NHK + PMA 1 ng/ml, 24 hours
Description: Assay of the PGE2 released by the NHK stimulated by PMA.
Alkyl-rhamnosides were evaluated as an inhibitor of the release of PGE2 in cellular supernatants. These products were placed in the presence of the NHK at the same time as the PMA at 1 ng/ml. Each condition tested was evaluated for stimulation on 4 wells of NHK.
The results summarized in Table 5 below represent the mean PGE2 concentration values (pg/ml), after 24 hours of treatment, given in each of the cellular supernatants, stimulated or not, and reported in a quantity of cells expressed in μg.

keratinocytes = assay: Toxicity test: viability of keratinocytes; assay type: cell-based; conditions: for % viability: compared to control 100%
Text: (§5) MTT [3-(4,5-[…])-2,5-diphenyl tetrazolium bromide] Reduction Technique (Sold by Sigma).
(§6) This technique corresponds to a colorimetric test allowing quantification of living, metabolically active cells in a non-radioactive manner. MTT is a cationic molecule which is bound to the membranes of mitochondria in a potential-dependant fashion. On the level of the mitochondria, MTT will be reduced to formazan blue by mitochondrial dehydrogenase. The living cells are thus colored blue, in contrast with the dead cells which remain transparent. The measure of viability is then carried out by measurement of the optical density using an automatic reader.
XTT Tetrazolium Salt Reduction Technique.
This is a technique allowing quantification of cellular proliferation and of the number of living (metabolically active) cells, without the incorporation of radioactive isotopes. XTT, yellow in color, is a cationic molecule which is bound to the membranes of mitochondria in a potential-dependant fashion, as does MTT.
On the level of the mitochondria, XTT will be reduced to formazan (orange) by mitochondrial tetrazolium reductase. […] Indeed, the reduction product is soluble within the cell. The method is thus faster. Living cells, in the absence and presence of a treatment become colored, in contrast with dead cells which remain colorless. The level of formazan product is detected with the spectrophotometer at a wavelength of 450 nm and is directly proportional to the number of metabolically active cells.
Keratinocytes were isolated and placed in culture from human skin biopsies arising from anonymous donors following a plastic surgery procedure. Measurements of optical density (absorbance) of the 4 wells treated with the same product concentration were averaged. This average was compared with the average of the measurements obtained for the 4 control wells (Student's t-test comparison of means significant difference at 95% if p<0.05 and 99% if p<0.01).
The viabilities of the treated cells are expressed as a percentage compared to the control (untreated cells) of 100% (OD treated/OD control×100).

[3] = system: proliferation of lymphocytes in auricular lymphatic ganglia; conditions: in vivo
Description: (§7) This test determines the sensitizing capacity of the test substance by measuring the proliferation of lymphocytes in auricular lymphatic ganglia. The proliferation of lymphocytes will be measured by determining the incorporation of tritiated methyl thymidine.

[4] = system: endothelial cells (appendix, brain microvascular, mesenteric lymphatic ganglia, peripheral lymphatic ganglia, skin microvascular); assay: Cytotoxicity test (MTT) on endothelial cell lines; assay type: cell-based
Text: as §5, §6
Endothelial cells were placed in culture, immortalized and stabilized in their phenotype. The cell lines studied were appendix endothelial cells, brain microvascular endothelial cells, mesenteric lymphatic ganglia endothelial cells, peripheral lymphatic ganglia endothelial cells and skin microvascular endothelial cells.
The cytotoxicity test was carried out by means of a biochemical test on the transformation of a tetrazolium salt, MTT. […] Viability is indeed always greater than 85%, and this is true for all of the cells lines studied.

[5] = system: proliferation of lymphocytes in auricular lymphatic ganglia; assay: Sensitizing capacity by the LLNA method (local lymph node assay)
Description: as §7

Question: How did the “increase in adhesion of lymphocytes” value (HAPEC; 1.5 mM) turn out when `CCCCCCCCCCCCOC1O[C@@H](C)[C@H](O)[C@@H](O)[C@H]1O` (stereo partly shown) [dodecyl-rhamnoside] was run?
Answer: 44.1%

Question: What about the inhibition of adhesion ([1]; 1.5 μM, endothelial cells) of the same compound?
Answer: 63%

Question: What about the Control/TNF ratio [1] of the same compound?
Answer: 0.59

Question: And the “adhesion between lymphocytes and endothelial cells, TNF” value [1]?
Answer: 1.900

Question: And the “effect on adhesion of lymphocytes” value (HPLNEC.B3; 1.5 mM)?
Answer: no effect

Question: What about the “effect on adhesion of lymphocytes” value (HMLNEC; 1.5 mM) of the same compound?
Answer: no effect

Question: What about the “effect on adhesion of lymphocytes” value (HBrMEC; 1.5 mM) of the same compound?
Answer: no effect

Question: What about the “decrease of the adhesion of lymphocytes” value (HSkMEC; 1.5 mM, non-activated HSkMEC) of the same compound?
Answer: 34.2%

Question: And the “adhesion between lymphocytes and endothelial cells, Medium” value (HSkMEC)?
Answer: 3.200

Question: How did the IL1α ratio (reconstituted epidermis; 24 hours of application) turn out when Triton [reference compound] was run?
Answer: 36.0

Question: And the IL8 ratio (reconstituted epidermis; 24 hours of application)?
Answer: 3.7

Question: What about the LDH ratio (reconstituted epidermis; 24 hours of application) of the same compound?
Answer: 124.7

Question: And the MTT % viability (reconstituted epidermis; 24 hours of application)?
Answer: 3.0%

Question: And the IL1α ratio (reconstituted epidermis; 72 hours of application)?
Answer: 7.2

Question: And the IL8 ratio (reconstituted epidermis; 72 hours of application)?
Answer: 0.9

Question: What about the LDH ratio (reconstituted epidermis; 72 hours of application) of the same compound?
Answer: 77.3

Question: What about the MTT % viability (reconstituted epidermis; 72 hours of application) of the same compound?
Answer: 1.5%

Question: And the “Classification (cutaneous irritant potential)” value (reconstituted epidermis)?
Answer: irritant

Question: Which results are given for `CCCCCCCCCCCOC1O[C@@H](C)[C@H](O)[C@@H](O)[C@H]1O` (stereo partly shown) [Rh-C11, undecyl-rhamnoside]?
Answer: Percentage of inhibition of the release of PGE2 ([2]; 0.01 mg/ml): 28%; Percentage of inhibition of the release of PGE2 ([2]; 0.02 mg/ml): 28%; activity (inhibition of PGE2 release) ([2]; in the range of 20 μg/ml): activity comparable to pentyl-rhamnoside; % viability (keratinocytes; 10 μg/ml): 81%; % viability (keratinocytes; 100 μg/ml): 17%; % viability (keratinocytes; 250 μg/ml): 11%; % viability (keratinocytes; 500 μg/ml): 30%

Question: What does the source list for `CCCCCOC1O[C@@H](C)[C@H](O)[C@@H](O)[C@H]1O` (stereo partly shown) [Rh-C5, pentyl-rhamnoside]?
Answer: Percentage of inhibition of the release of PGE2 ([2]; 0.02 mg/ml): 29%; Percentage of inhibition of the release of PGE2 ([2]; 0.05 mg/ml): 61%; Percentage of inhibition of the release of PGE2 ([2]; 0.1 mg/ml): 64%; Percentage of inhibition of the release of PGE2 ([2]; 1 mg/ml): 89%; effect on adhesion of lymphocytes (HAPEC; 1.1 mM): no effect or a very slight effect; Control/TNF ratio [1]: 1.6; adhesion between lymphocytes and endothelial cells, TNF [1]: 3.100; concentrations at which cytotoxicity is exhibited (keratinocytes): greater than 2 mg/ml; % viability (keratinocytes; 0.1 mg/ml): 94%; % viability (keratinocytes; 1 mg/ml): 74%; % viability (keratinocytes; 2 mg/ml): 53%; % viability (keratinocytes; 5 mg/ml): 40%; increase in adhesion of lymphocytes (HPLNEC.B3; 1.1 mM): 37.9%; increase in adhesion of lymphocytes compared to rhamnose (HMLNEC; 1.1 mM): 96.7%; Conclusion (sensitizing capacity) [3]: Not sensitizing; sensitizing capacity [3]: not sensitizing; Viability ([4]; all of the cells lines studied): greater than 85%; toxicity ([4]; endothelial cell lines): no toxicity; DPM/Ganglion ([5]; Concentration 1: 3%): 1240.2 DPM/Ganglion; RATIO ([5]; Concentration 1: 3%): 0.7; DPM/Ganglion ([5]; Concentration 2: 15%): 1041.1 DPM/Ganglion; RATIO ([5]; Concentration 2: 15%): 0.6; DPM/Ganglion ([5]; Concentration 3: 30%): 797.3 DPM/Ganglion; RATIO ([5]; Concentration 3: 30%): 0.5; effect on adhesion of lymphocytes (HBrMEC; 1.1 mM): no effect or a very slight effect; inhibiting effect on the adhesion of lymphocytes compared to rhamnose (HSkMEC; 1.1 mM, non-activated HSkMEC): 37.3%; adhesion between lymphocytes and endothelial cells, Medium (HSkMEC): 1.900

Question: How did the Control/TNF ratio [1] turn out when `C[C@H](O)[C@H](O)[C@@H](O)[C@@H](O)C=O` [Rhamnose, rhamnose, reference compound] was run?
Answer: 1.5

Question: And the “adhesion between lymphocytes and endothelial cells, TNF” value [1]?
Answer: 2.450

Question: What about the “% viability” value (keratinocytes; 0.001 mg/ml) of the same compound?
Answer: 95%

Question: What about the “% viability” value (keratinocytes; 0.01 mg/ml) of the same compound?
Answer: 100%

Question: And the “% viability” value (keratinocytes; 0.1 mg/ml)?
Answer: 98%

Question: What about the “% viability” value (keratinocytes; 1 mg/ml) of the same compound?
Answer: 104%

Question: What about the cytotoxicity (keratinocytes; even for the highest concentrations) of the same compound?
Answer: does not exhibit cytotoxicity

Question: What about the “adhesion between lymphocytes and endothelial cells, Medium” value (HSkMEC) of the same compound?
Answer: 1.630

Question: For octadecyl-rhamnose [Rh-C18], which “Percentage of inhibition of the release of PGE2” value ([2]; 0.02 mg/ml) is on record?
Answer: 2%
